Article PMC12400448 (Chemical Science, 2025)

Target: alkaline phosphatase (ALP)
Assay: fluorescence enzyme inhibition assay with compd. […] as substrate
Type: biochemical

IC50: 10.2 µM
SMILES: [O]=[V]([OH])([OH])[OH] [sodium orthovanadate]
